Measurements taken from patent US20240299358A1, “COMPOSITIONS AND METHODS FOR DIAGNOSIS AND TREATMENT OF AUTOIMMUNE DISEASES” (DUKE UNIVERSITY, priority 2021, published 2024).
Entries after “also recorded” stand apart in the source; their conditions may differ.

Experiments:
[1] = test system: eHsp90; experiment: In vivo tracking of eHsp90 expression in CIA mouse model of RA (flow cytometry, CryoViz imaging)
Procedure: FIG. 5A is a schematic of CIA mouse model of RA experimental design, wherein mice were inoculated with CIA on day 0) and 21. […] 6-hours post treatment mice were whole body cryopreserved. […] Gated regions indicate CD4 and CD8 T-Cell populations isolated from individual mice. eHsp90 expression in CD4 and CD8 T cells 6 hours post HS-131 or HS-198 treatment. N=3+SD. Experiments represent 3 biological replicates.
CIA Disease: Collagen was prepared at 4 mg/ml in 0.01 N acetic acid. Equal volumes of 4 mg/ml collagen and 5 mg/ml Freund's complete adjuvant were emulsified by hand mixing with syringes for approximately 5 min, at which point a bead of this material holds its form when placed in water. On study days 0 and 21, animals were anesthetized with isoflurane and given intradermal injections of a total of 400 μg of type II collagen in Freund's complete adjuvant at the base of the tail.
CryoViz™ Imaging: Whole mice were imaged at 10.23 μm×10.23 μm in-plane resolution using an Olympus MVX-10 microscope with a 1X objective and 0.63× magnification and 40 μm section thickness, using the Cryo Viz™ (BioInVision, Inc., Cleveland, USA). CryoViz™ is a fully automated, serial sectioning-and-imaging system which provides 3-dimensional, tiled, microscopic anatomical bright field and molecular fluorescence images over large fields-of-view such as a whole mouse. Images were acquired using a dual band FITC/TxRed fluorescence filter (Chroma, Inc., Rockingham, VT), a liquid crystal RGB filter and a low-noise monochrome camera. Raw images acquired by the Cryo Viz™ were processed to generate 3D color anatomical brightfield and molecular fluorescence volumes using the Cryo Viz™ Preprocessor software (BioIn Vision, Inc., Cleveland, Ohio). These 3D volumetric image data were then processed using the CryoViz™ 3D Visualizer software (BioInVision, Inc., Cleveland, USA) to obtain 3D reconstructed brightfield and fluorescence volume renderings and movies with 2D slice cutaway animations, showing the 2D/3D biodistribution of TxRed labeled HS-131 within the mouse volume.
This was consistently seen in cell culture, tumor cell xenografts and mouse models of spontaneous metastatic disease (Barrott et al. Chem Biol 20. 1187-1197 (2013)). […] To determine if this phenomenon occurred within the context of a fully functional immune system, the collagen induced arthritic (CIA) mouse model of human rheumatoid arthritis (RA) was utilized (Rice et al. Arthritis Rheum 58. 3765-3775 (2008)). Mice (DBA/IlacJ ˜8 weeks old) reliably develop polyarthritis when immunized against bovine type II collagen (Scarneo et al. Arthritis Res Ther 21, 292 (2019): Campbell et al., Ann Rheum Dis 56, 364-368 (1997)). The disease that occurs is usually non-symmetric, and any combination of paws/joints may be affected. Mice were injected […] with bovine collagen at Day (and then again 21 days later (FIG. 5A). This second injection triggered the development of the CIA related symptoms over the next several days within the joints. A primary mediator of local inflammatory responses in autoimmunity are invading T cell populations recognizing foreign antigens. To determine if invading T cells at sites of active disease expressed eHsp90, the animals were injected with HS-131 or HS-198. This was done at the peak of RA symptoms following the second immune challenge. After 6 hours, the animals were euthanized, immediately cryo-frozen in liquid nitrogen and cryo-sectioned (see, FIG. 5A).
Approximately, 500 40 μm slices were made and each slice imaged with both bright field and by fluorescence at Ex640 nm/Em680 nm. Evaluation of the biodistribution was then made by histological examination of individual slices and after in silico reconstruction of the entire mouse anatomy (see, FIGS. 5B-5E).

[2] = test system: eHsp90; experiment: Flow cytometry uptake of fluor-tethered Hsp90 inhibitors by T cells from human PBMCs; format: cell-based; conditions: anti-CD3/28 stimulated human PBMCs, following activation (FIG. 3A)
Procedure: T-cell activation: PBMC aliquots (ZenBio SER-PBMC-F) were washed in RPMI-1640 with 10% FBS and PSG and then rested overnight in a T-75 flask. The suspended cells were then transferred to a fresh flask and activated in fresh RPMI-1640/10% FBS/PSG by 3:20,000 anti-CD3 (BioLegend 317303), 3:20,000 anti-CD28 (BioLegend 302913), and 1:10,000 (30 IU/mL) human IL-2 (CST 8907SC) and incubated for up to 72 hours. In the experiments with longer activation, samples were diluted 1:3 into fresh media containing hIL-2 at 72 hours post initial stimulation with CD3/CD28 antibodies.
Flow Cytometry: The activated/rested cells were plated into a 96-well round bottom plate and pelleted at low speed. Cells were resuspended in chilled media containing titrated HS-131 or HS-198 (in 1% DMSO) and stained for 30 minutes at RT. Fluorochrome tagged inhibitors and media were washed away with a PBS wash, followed by a PBS wash containing 3% NMS. Surface antibody stains were performed in 3% NMS/PBS for 30 minutes followed by PBS washes (2x). Samples were analyzed on BD FACSCanto II flow cytometer. Permeabilized samples were prepared as previously described followed by fixation in 4% Formaldehyde/PBS overnight at 4° C. Sample analysis was performed with Flowing Software and FlowJo.
A hallmark of T cell function is to proliferate rapidly in response to antigen presentation along with appropriate cytokine and costimulatory signaling. This leads to the induction of the chaperone machinery which is essential in facilitating this process. In some respects, antigen induced T cell proliferation may be analogous to oncogene driven metastasis. Therefore, to investigate whether proliferating T cells similarly express eHsp90 during T cell activation, their ability to absorb fluor-tethered Hsp90 inhibitors following an anti-CD3/CD28 challenge was examined (see. FIGS. 2A-2E). The structures of two types of fluor-tethered Hsp90 inhibitors (HS-131 and […]) that were used in the present studies are shown in FIG. 2A. […]

SMILES: Cc1nn(-c2ccc(C(N)=O)c(NCCCOCCOCCOCCOCCOCCCNCc3ccc(C(=C\C=C4\N(CCCCS(=O)(=O)[O-])c5ccccc5C4(C)C)/C=C/C4=[N+](CCCCS(=O)(=O)O)c5ccccc5C4(C)C)cc3)c2)c2c1C(=O)CC(C)(C)C2 [HS-131]
- probe uptake in joints of naïve non diseased animal compared to CIA diseased animal ([1]; 10 nmoles tail vein, 6 hours post injection (FIGS. 6A-6C)): no marked HS-131 in the joints
- systemic distribution in whole-body reconstruction of CIA mice ([1]; 6 hours post tail vein injection): largely confined to areas of active immune cell invasion
- probe signal (eHsp90 expression) in T cells of PBMC populations from CIA mice by flow cytometry ([1]; 6 hours post tail vein injection, CD4 and CD8 T cells (FIG. 5B)): pronounced eHsp90 expression
- probe localization in hind leg, knee, hip and paw of CIA mouse ([1]; 6 hours post tail vein injection, cryo-sections (FIG. 5C)): marked increase
- fluorescence associated with the lower intestine of CIA mice ([1]; 24 hours post HS-131 injection (FIG. 7B)): no discrete fluorescence
- route of elimination / clearance ([1]; mice): via the hepatobiliary system and intestines; also recorded: exclusively eliminated through the biliary system and intestine; also recorded: rapid hepatobiliary clearance
- eHsp90 expression upregulation as determined by HS-131 binding [2]: 20-25 fold
